From patent publication US20240091183A1 (Syros Pharmaceuticals, Inc., priority 2021, published 2024)

Assay: population PK model and simulations of flat versus BSA-based dosing of tamibarotene
Design: species or system human
Conditions: population PK analysis of prior study, 6 mg/m2/day in 2 divided doses
Procedure: The dose and regimen used in a prior study (6 mg/m^2/day in 2 divided doses) were based on the dose and regimen approved in Japan for the treatment of APL. […] Based on this analysis, the fixed dosing regimens described herein, including the 6 mg BID flat dosing regimen, are expected to provide similar PK exposures compared to the 6 mg/m^2/day (in 2 divided doses) regimen used in the prior study.
A population PK model was developed using patient characteristics, and we assessed the impact of weight on drug clearance. Simulations were conducted to assess the performance of “flat” versus BSA-based dosing. Simulated AUC (area-under-the-curve) from the model was used to establish relationship of exposure with efficacy and safety; we analyzed exposure and achievement of CR/CRi and exposure with adverse events equal to or greater than those of grade 3.

Tamibarotene
association of body size with clearance: not significantly associated
